Article PMC4807533, “Specific tracking of xylan using fluorescent-tagged carbohydrate-binding module 15 as molecular probe” (Biotechnology for Biofuels, 2016)
Read-outs that look alike come from different tables or passages of the source.

Target: T1, OC15 (mOrange2-CBM15 fusion probe) (Cellvibrio japonicus, UniProt Q59675)
T1 construct: gene xyn10C; CBM15 domain of xylanase Xyn10C, C-terminal; N-terminal His6-mOrange2 reporter, tags kept; single Gly linker; synthetic gene, pET11a, E. coli BL21-Gold(DE3)pLysS; primers imply CBM15 begins VAAS and ends at stop after EAYSAN
Experiment: isothermal titration calorimetry
Type: binding
Settings: 20 mM Tris-HCl pH 7.5, 20 mM NaCl, 5 mM CaCl2, 25 °C
Excerpt: isothermal titration calorimetry on OC15 (mOrange2-CBM15 fusion probe)

T1 sequence (Q59675 86-247): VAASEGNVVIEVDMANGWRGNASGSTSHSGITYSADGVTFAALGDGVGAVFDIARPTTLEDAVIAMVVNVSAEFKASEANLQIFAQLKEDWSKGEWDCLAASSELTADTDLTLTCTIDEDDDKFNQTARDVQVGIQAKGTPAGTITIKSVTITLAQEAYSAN

Row | Kd (cellohexaose of 90 % purity, read-out: K a × 10^3 (M^-1) (converted)) [µM] | Kd (cellohexaose of 90 % purity, read-out: K d) [µM] | Kd (read-out: K a × 10^3 (M^-1) (converted)) [µM] | Kd (read-out: K d) [µM] | SMILES
1 | 476 | 479 |  |  | OC[C@H]1O[C@@H](O[C@H]2[C@H](O)[C@@H](O)[C@H](O[C@H]3[C@H](O)[C@@H](O)[C@H](O[C@H]4[C@H](O)[C@@H](O)[C@H](O[C@H]5[C@H](O)[C@@H](O)[C@H](O[C@H]6[C@H](O)[C@@H](O)C(O)O[C@@H]6CO)O[C@@H]5CO)O[C@@H]4CO)O[C@@H]3CO)O[C@@H]2CO)[C@H](O)[C@@H](O)[C@@H]1O (stereo partly shown) [cellohexaose]
2 |  |  | 29.4 | 29.4 | OC1OC[C@@H](O[C@@H]2OC[C@@H](O[C@@H]3OC[C@@H](O[C@@H]4OC[C@@H](O[C@@H]5OC[C@@H](O[C@@H]6OC[C@@H](O)[C@H](O)[C@H]6O)[C@H](O)[C@H]5O)[C@H](O)[C@H]4O)[C@H](O)[C@H]3O)[C@H](O)[C@H]2O)[C@H](O)[C@H]1O (stereo partly shown) [xylohexaose]
